Measurements taken from patent publication US8084489B2 (Eli Lilly and Company, priority 2005, dated 2011).

Biological target: cloned human glucagon receptor (Homo sapiens, UniProt P47871)
Assay: Glucagon Receptor (hGlucR) Binding Assay
Protocol: This plasmid DNA was transfected into 293 HEK cells and selected with 200 ug/ml Hygromycin.
Crude plasma membranes are prepared using cells from suspension culture. The cells are lysed on ice in hypotonic buffer containing 25 mM Tris HCL, pH 7.5, 1 mM MgCl2, DNAse1, 20 u/ml, and Roche Complete Inhibitors-without EDTA. The cell suspension is homogenized with a glass dounce homogenizer using a Teflon pestle for 25 strokes. The homogenate is centrifuged at 4 degrees C. at 1800×g for 15 mins. The supernate is collected and the pellet is resuspended in hypotonic buffer and rehomogenized. The mixture is centrifuged at 1800×g for 15 mins. The second supernate is combined with the first supernate. The combined supernates are recentrifuged at 1800×g for 15 mins to clarify. The clarified supernate is transferred to high speed tubes and centrifuged at 25000×g for 30 minutes at 4 degrees C. The membrane pellet is resuspended in homogenization buffer and stored as frozen aliquots at −80 degree C. freezer until needed.
The specific activity is 2200 Ci/mmol.
The binding buffer contains 25 mM Hepes, pH 7.4, 2.5 mM CaCl2, 1 mM MgCl2, 0.1% fatty acid free BSA, (ICN), 0.003% tween-20, and Roche Complete Inhibitors without EDTA. […] Test compounds are dissolved in DMSO and serially diluted in DMSO. […] Plates are read with a MicroBeta after 14 hours of settling time at room temp. […]

Chain of cloned human glucagon receptor (P47871 26-477): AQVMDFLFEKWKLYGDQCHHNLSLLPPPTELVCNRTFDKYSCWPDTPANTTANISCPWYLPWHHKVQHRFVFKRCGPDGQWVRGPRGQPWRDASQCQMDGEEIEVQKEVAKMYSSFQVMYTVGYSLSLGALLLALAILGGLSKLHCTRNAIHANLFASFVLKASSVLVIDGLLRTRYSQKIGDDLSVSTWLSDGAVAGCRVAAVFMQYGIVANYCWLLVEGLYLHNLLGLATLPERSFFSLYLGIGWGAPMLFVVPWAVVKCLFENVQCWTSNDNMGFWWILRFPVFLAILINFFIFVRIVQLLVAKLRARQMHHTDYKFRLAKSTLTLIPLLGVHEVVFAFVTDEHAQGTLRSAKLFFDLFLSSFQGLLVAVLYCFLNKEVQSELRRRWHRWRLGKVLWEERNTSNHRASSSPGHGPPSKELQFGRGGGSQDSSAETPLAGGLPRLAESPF

Ki | SMILES
390 nM | CC(C)CC(Oc1ccc(-c2ccc(C(F)(F)F)cc2)cc1)c1ccc(C(=O)NCCC(=O)O)s1 (centres unmarked)
296 nM | CC(C)CC(Oc1ccc(-c2ccc(C(C)(C)C)cc2)nc1)c1ccc(C(=O)NCCC(=O)O)s1 (centres unmarked)
